Tested on: HELA cells
Experiment: HELA cell proliferation assay (CellTitre-Glo, 6 days)
Type: cell-based
Details: Homo sapiens, 144 h; HELA cells, 6 days treatment, CellTitre-Glo; read-out: HeLa pIC50 (converted)

| Structure (SMILES) | IC50 |
| --- | --- |
| Nc1nc(NC2(c3ccccn3)CC2)nc(-c2ccc3cn[nH]c3c2)n1 [Example 6, 6-(1H-indazol-6-yl)-N2-[1-(2-pyridyl)cyclopropyl]-1,3,5-triazine-2,4-diamine] | 589 nM |
| CC(C)(Nc1nc(N)nc(-c2cc(F)c3cn[nH]c3c2)n1)c1ccn(C(F)F)n1 [Example 104, N2-[1-[1-(difluoromethyl)pyrazol-3-yl]-1-methyl-ethyl]-6-(4-fluoro-1H-indazol-6-yl)-1,3,5-triazine-2,4-diamine] | 219 nM |

Source: US20240300936A1 (priority 2021, published 2024)
